Assay results published in patent US20170334899A1, “AMINO-SUBSTITUTED ISOTHIAZOLES” (Bayer Pharma Aktiengesellschaft, priority 2014, published 2017).
pIC50: −log10 of the molar value.

Assays:
[1] = system: human cervical tumor cell line HeLa (ATCC CCL-2); experiment: SAC-Formation - Paclitaxel-Induced Assay; format: cell-based; details: Homo sapiens, HeLa, 24 h, HeLa cells, paclitaxel 0.05 μM, test range 0.005 μM-20 μM, read-out: IC50 [mol/l] SAC-Formation - Paclitaxel-Induced Assay
How it was run: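 Read-out is high-content imaging of anti-phospho-H3 Ser10 (mitosis) and Hoechst 33342 (DNA, cell number), with decreased mitotic fraction marking checkpoint breakthrough. Compounds (0.005–20 μM) and 0.05 μM paclitaxel co-added to overnight-plated HeLa for 24 h at 37° C; four-parameter Hill fit.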

[2] = system: human cervical tumor cell line HeLa (ATCC CCL-2); experiment: SAC-Formation - Nocodazole-Induced Assay; format: cell-based; details: Homo sapiens, HeLa, 24 h, HeLa cells, nocodazole 0.1 μg/ml together with test compound, decrease of mitotic cells (phospho-histone H3 Ser10)
How it was run: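 Loss of phospho-histone H3 Ser10-positive cells, counted against Hoechst-stained nuclei by high-content imaging, marked mitotic breakthrough. Compounds (0.005–20 μM, 0.5% DMSO) were co-dosed with 0.1 μg/ml nocodazole onto HeLa cells for 24 h at 37 °C. Curves were fitted with a four-parameter Hill equation.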

Row | Structure (SMILES) | pIC50 [1] | pIC50 [2]
1 | Cc1nsc(Nc2cnc3ccccc3n2)c1C(=O)Nc1ccc(NCCC(=O)OC(C)(C)C)nc1 [Example 236, tert-butyl N-[5-({[3-methyl-5-(quinoxalin-2-ylamino)-1,2-thiazol-4-yl]carbonyl}amino)pyridin-2-yl]-beta-alaninate] | 4.70 | 5.52
2 | COC(=O)c1cc(NC(=O)c2c(C)nsc2Nc2cnc3ccccc3n2)cc(C(=O)OC)c1 [Example 237, dimethyl 5-({[3-methyl-5-(quinoxalin-2-ylamino)-1,2-thiazol-4-yl]carbonyl}amino)isophthalate] | 4.70 | 6.24
3 | Cc1nsc(Nc2cnc3ccccc3n2)c1C(=O)Nc1ccc(NCC2CCN(C(=O)OC(C)(C)C)CC2)nc1 [Example 238, tert-butyl 4-({[5-({[3-methyl-5-(quinoxalin-2-ylamino)-1,2-thiazol-4-yl]carbonyl}amino)pyridin-2-yl]amino}methyl)piperidine-1-carboxylate] | 5.01 | 5.46
4 | Cc1nsc(Nc2cc(C#N)ccn2)c1C(=O)Nc1cccc(C(=O)OC(C)(C)C)c1 [Example 239, tert-butyl 3-[({5-[(4-cyanopyridin-2-yl)amino]-3-methyl-1,2-thiazol-4-yl}carbonyl)amino]benzoate] | 6.20 | 6.29
5 | Cc1nsc(Nc2ccc(C#N)cn2)c1C(=O)Nc1cccc(C(=O)OC(C)(C)C)c1 [Example 240, tert-butyl 3-[({5-[(5-cyanopyridin-2-yl)amino]-3-methyl-1,2-thiazol-4-yl}carbonyl)amino]benzoate] | 7.15 | 6.89
6 | Cc1nsc(Nc2cnc3ccccc3n2)c1C(=O)Nc1ccc(NC2CCCN(C(=O)OC(C)(C)C)C2)nc1 (stereo not drawn) [Example 241, tert-butyl 3-{[5-({[3-methyl-5-(quinoxalin-2-ylamino)-1,2-thiazol-4-yl]carbonyl}amino)pyridin-2-yl]amino}piperidine-1-carboxylate] | 5.64 | 5.85
7 | Cc1nsc(Nc2cc(C#N)ccn2)c1C(=O)Nc1ccc(NC2CCCNC2)nc1 (stereo not drawn) [Example 242, 5-[(4-cyanopyridin-2-yl)amino]-3-methyl-N-[6-(piperidin-3-ylamino)pyridin-3-yl]-1,2-thiazole-4-carboxamide] | 5.48 | 5.59
8 | Cc1cc(C)n(-c2ccccc2NC(=O)c2c(C)nsc2Nc2cnc3ccccc3n2)n1 [Example 243, N-[2-(3,5-dimethyl-1H-pyrazol-1-yl)phenyl]-3-methyl-5-(quinoxalin-2-ylamino)-1,2-thiazole-4-carboxamide] | 5.19 | 5.74
9 | Cc1nsc(Nc2cnc3ccccc3n2)c1C(=O)Nc1ccc(NCCNC(=O)OC(C)(C)C)nc1 [Example 244, tert-butyl (2-{[5-({[3-methyl-5-(quinoxalin-2-ylamino)-1,2-thiazol-4-yl]carbonyl}amino)pyridin-2-yl]amino}ethyl)carbamate] | 5.41 | 5.43
10 | Cc1nsc(Nc2cnc3ccccc3n2)c1C(=O)Nc1ccc(Nc2ccc(F)c(F)c2)nc1 [Example 245, N-{6-[(3,4-difluorophenyl)amino]pyridin-3-yl}-3-methyl-5-(quinoxalin-2-ylamino)-1,2-thiazole-4-carboxamide] | 5.77 | 5.74
11 | Cc1nsc(Nc2ccc(C#N)cn2)c1C(=O)Nc1ccc(S(C)(=O)=O)cc1 [Example 246, 5-[(5-cyanopyridin-2-yl)amino]-3-methyl-N-[4-(methylsulfonyl)phenyl]-1,2-thiazole-4-carboxamide] | 7.11 | 6.48
12 | CCN(CC)CCNC(=O)c1cccc(NC(=O)c2c(C)nsc2Nc2cnccn2)c1 [Example 247, N-(3-{[2-(diethylamino)ethyl]carbamoyl}phenyl)-3-methyl-5-(pyrazin-2-ylamino)-1,2-thiazole-4-carboxamide] | 6.85 | 5.92
